Data set [1] in a line: Pharmacokinetic determination in mice (IV and PO, plasma, LCMS/MS). The settings on record: mouse, in vivo, PO, 30 mg/kg, male Balb/c mice, overnight fasting, plasma. Type of data set: in vivo, Balb/c mice. From the text: • 1. Study objective: Balb/c mice were used as test animals to study the pharmacokinetic behavior of the compounds in mice (plasma) after oral administration. • 2. Test scheme • 2.1 Test drugs: The example compounds of the present invention, made in house; • 2.2 Test animals: Balb/c mice, male, purchased from Shanghai Jiesijie Experimental Animal Co., Ltd., animal production license number (SCXK (Shanghai) 2013-0006 N0.311620400001794). • 2.3 Drug formulation: Formulation of a drug for oral administration: 10% Captisol in 50 mM citrate buffer pH 5.0.
Formulation of 50 mM citric acid: 4.8 g of citric acid was weighed into a 1000 ml glass bottle, ultrapure water was added to 300 ml, and the mixture was magnetically stirred until completely dissolved, additional ultrapure water was then added to 500 ml to formulate 50 mM citric acid.
Formulation of a solution containing 50 mM citric acid (10% Captisol, PH = 5): 50 g of Captisol powder was weighed and added to a 1000 ml glass bottle, 300 ml of 50 mM citric acid was added, and the mixture was magnetically stirred until completely dissolved, then additional citric acid was added to 500 ml, and the PH was adjusted to 5 using 10 M NaOH.
The example compounds were weighed and added to a 4 mL glass bottle separately, 2.4 mL of the solution was added and the mixture was subjected to ultrasound treatment for 10 min to obtain a colorless clear solution with a concentration of 3 mg/mL.
Formulation of a drug for intravenous administration: 5%DMSO+10%Solutol HS15+85%PBS.
The example compounds were weighed, and 5% DMSO was added according to the total administration volume; the mixture was vortexed and sonicated for 2 min to ensure complete dissolution; then, 10% Solutol HS15 was added, and the mixture was vortexed and sonicated for 2 min to achieve complete dissolution; finally, 85% PBS was added, and the mixture was vortexed and sonicated for 5 min; the obtained mixture was filtered through a 0.22 um membrane to obtain a colorless, transparent, and clear solution with a concentration of 0.2 mg/mL.
3 Balb/c mice, male; After overnight fasting, the animals were administered orally (PO) at a dose of 30 mg/kg with an administration volume of 10 mL/kg.
3 Balb/C mice, male; After overnight fasting, the animals were administered intravenously (IV) at a dose of 1 mg/kg with an administration volume of 5 mL/kg.
0.04 mL of blood was collected from the orbit before administration and at 0.25 h, 0.5 h, 1 h, 2 h, 4 h, 6 h, 8 h, and 24 h after administration and placed in an EDTA-2K test tube, and the test tube was centrifuged at 6000 rpm for 6 min at 4°C to separate the plasma, which was stored at -20°C; the animals were fed 4 h after administration.
The final determination results obtained by applying the LCMS/MS method are shown in the table below: Table 6: Pharmacokinetic parameters of the compounds administered intravenously in mice

The next data set relates to GP2D. Description: Inhibition of proliferation of KRAS G12D mutant tumor cell line GP2D (CellTiter-Glo). The settings on record: Homo sapiens, GP2d, 72 h, read-out: GP2D IC50.
In another data set the test system is AsPC-1. Briefly: Inhibition of proliferation of KRAS G12D mutant tumor cell line AsPC-1 (CellTiter-Glo). Type of data set: cell-based. Particulars: Homo sapiens, ASPC1, about 72 h. As to the method: 1. Experimental objective: The inhibition activity of the example compounds on the proliferation of 5 KRAS G12D mutant cell lines SNU-1, HPAF-II, Panc0403, AsPC-1 and GP2D was determined. 2. Experimental instruments: • 2.1 Instruments: Microplate reader (BioTek Synergy H1); Pipette (Eppendorf & Rainin). • 2.2 Reagents: HPAF-II, PANC0403, AsPC-1 and GP2D were purchased from COBIOER BIOSCIENCES CO., LTD; SNU-1 was purchased from the cell bank of Chinese Academy of Sciences, Cell Titer-Glo was purchased from Promega, with a catalog number of G7573; RPMI 1640 was purchased from Gibco, with a catalog number of 22400089; DMEM was purchased from Gibco, with a catalog number of 11995065; FBS was purchased from Gibco, with a catalog number of 10091148; PBS was purchased from Gibco, with a catalog number of 10010023; trypsin was purchased from Gibco, with a catalog number of 25200056; cell culture plates were purchased from Corning Company, with a catalog number of 3610. 3. Experimental method: When SNU-1, HPAF-II, Panc0403, AsPC-1 or GP2D cells were cultured to the appropriate confluence, and the SNU-1, HPAF-II, Panc0403, AsPC-1 or GP2D cells were collected. The cells were adjusted to the appropriate cell density using complete culture medium, the cell suspension was plated onto a 96-well plate at 90 µL per well, and the plate was placed in the incubator at 37°C and 5% CO2 for adherent culture overnight. Solutions of the compound with different concentrations were formulated using DMSO and culture medium. A vehicle control was set up. The solutions of the compound were added to the 96-well plate at 10 µL per well, and the plate was placed in the incubator at 37°C and 5% CO2 for further culture for about 72 h. Then, CellTiter-Glo solution was added, and the obtained mixture was shaken and mixed evenly, incubated in the dark for 10 min, and read with a BioTek Synergy H1 microplate reader. 4. Experimental data processing method: The luminescence signal value was used to calculate the inhibition rate. Graphpad Prism software was used to fit the concentration and inhibition rate to a nonlinear regression curve, so as to obtain the IC50 value. 5. Experimental results: Table 2: Determination of the inhibition activity of the compounds on the proliferation of KRAS G12D mutant tumor cell line GP2D

In data set [2] the test system is human colorectal cancer cell line (GP2D). Description: Anti-tumor efficacy in mouse transplanted tumor model of human colorectal cancer cell line (GP2D). Format: in vivo, mice (BALB/c nude). Particulars: 100mpk, PO*BID. From the text: 8-10 week old female conventional immunodeficient mice (BALB/c nude) with a body weight of 18 g-22 g were used as experimental animals, and a transplanted tumor model of human colorectal cancer cell line (GP2D) was used to conduct in vivo efficacy experiments to test the anti-tumor results of the example compounds after gavage administration.
The example compounds of the present invention, made in house.
A certain amount of the example compound was weighed, and an appropriate amount of 10% vehicle (Solutol HS15) was added. The mixture was stirred on a magnetic stirrer for 0.5 h to formulate a homogeneous suspension at the desired concentration.
The human colorectal cancer cell line (GP2D) was derived from COBIOER BIOSCIENCES CO., LTD, cultured on DMEM medium (Gibco, 11995-065) supplemented with 10% fetal calf serum (Gibco, 10091-148) and 1% penicillin/streptomycin (Gibco, 15140-122) and observed under a microscope (Thermo Fisher, 311). The cells were routinely passaged when the cells reached 80%-90% confluence in the culture flask. The passaged cells were cultured in a 37°C, 5% CO2 incubator (Thermo Fisher, 311).
Under aseptic conditions, human colorectal cancer cells (GP2D) in the logarithmic growth phase were harvested using 0.25% trypsin-EDTA (Gibco, 25200-056), washed and resuspended with phosphate buffer. The cell suspension was mixed with Matrigel (Corning, 356234) at a 1 : 1 ratio (v/v) and implanted subcutaneously into the right anterior dorsal region of immunodeficient mice (BALB/c nude). Each mouse was inoculated with 5*10^6 cells in a volume of 100 microliters (µL). After inoculation, when the tumor volume reached 100-200 mm^3, the mice would be evenly randomized into 5 groups based on the tumor size, with 5 mice per group, for in vivo efficacy experiments. The positive control group was the compound MRTX-1133, and the negative control group was the vehicle group.
Mode of administration: The positive control group was intraperitoneally injected, and the example compounds were administered orally.
Twice a week, the long and short diameters of the tumor were measured using a vernier caliper, and the tumor volume (mm^3) was calculated using the formula: V = 0.5*D*d*d, where D and d are the long and short diameters of the tumor, respectively. The anti-tumor efficacy was determined by dividing the average increase in tumor volume of compound-treated animals by the average increase in tumor volume of untreated animals. The calculation formula for tumor inhibition rate was: When there is no tumor regression, TGI(%) = 100-[(Vt-V0) administration group/(Vt-V0) vehicle control group]*100%. When tumor regression occurs, TGI(%) = [1-(V1-V0) administration group/V0 vehicle control group]* 100%. All animals were euthanized after the experiment.

The next data set relates to p-ERK in AGS cells. Description: Inhibition of p-ERK in AGS cells (LANCE Ultra phospho-ERK1/2 kit). Format: cell-based. Particulars: Homo sapiens; AGS cells, 2 h with compound; read-out: AGS_pERK IC50. Here is the method:
1. Experimental objective: The inhibition activity of the example compounds on the phosphorylated ERK level in KRAS G12D mutant cells AGS was determined. 2. Experimental instruments: • 2.1 Instruments: Envison; Pipette (Eppendorf & Rainin) • 2.2 Reagents: AGS cells were purchased from COBIOER BIOSCIENCES CO., LTD, with a catalog number of CBP60476; Phosphorylated ERK1/2 (T202-Y204) LANCE Ultra Cellular Detection Kit was purchased from PerkinElmer, with a catalog number of TRF4000M; RPMI 1640 was purchased from Gibco, with a catalog number of 22400071; FBS was purchased from Gibco, with a catalog number of 10091148; PBS was purchased from Gibco, with a catalog number of 10010023; trypsin was purchased from Gibco, with a catalog number of 25200056; cell culture plates were purchased from Corning Company, with a catalog number of 3610; White opaque OptiPlate™-384 plates were purchased from PerkinElmer, with a catalog number of 6007290. 3. Experimental method: When AGS cells were cultured to appropriate confluence, the AGS cells were collected, and the cell density was adjusted to 4 × 10^5/mL using complete culture medium. The cell suspension was plated onto a 96-well plate at 100 µL per well, and the plate was placed in the incubator at 37°C and 5% CO2 for adherent culture overnight. Solutions of the compound with different concentrations were formulated using DMSO and complete culture medium, and a vehicle control was set up. The solutions of the compound were added to the 96-well plate at 25 µL per well, and the plate was placed in the incubator at 37°C and 5% CO2 for further culture for 2 h. Then, the supernatant of the cell culture plate was discarded, 50 µL of lysis buffer was added to each well, the cells were lysed at room temperature under shaking for 30 min, then placed in a centrifuge and centrifuged at 1000 rpm for 1 min. 15 µL of supernatant was transferred to a 384-well plate, 5 µL of detection mixture was added to each well (Eu-labeled anti-ERK1/2 (T202-Y204) Antibody at a final detection concentration of 0.5 nM and ULight labeled anti-ERK1/2 Antibody at a final detection concentration of 5 nM), centrifuged at 1000 rpm for 1 min, mixed evenly, and reacted at room temperature overnight. The plate was read using Envison and the signal values at the emission wavelengths of 620 nm and 665 nm were detected using a time-resolved fluorescence program. 4. […] Graphpad Prism software was used to fit the concentration and inhibition rate to a nonlinear regression curve, so as to obtain the IC50 value. Table 5: Inhibition activity of the compounds on p-ERK in AGS cells

The values that follow come from EP4635958A1, “PYRIMIDINE-CONTAINING POLYCYCLIC DERIVATIVE INHIBITOR, AND PREPARATION METHOD THEREFOR AND USE THEREOF” (Shanghai Hansoh Biomedical Co., Ltd., priority 2022, dated 2024).

pIC50: −log10 of the molar value. Structures can show the parent of a compound that is named as a salt.

Regarding `C#Cc1c(F)ccc2cc(O)cc(-c3nc4c5c(nc(OCC6(CN7CCC(=CF)C7)CC6)nc5c3F)N3C[C@H]5CC[C@H](N5)[C@H]3[C@H](C)O4)c12` [Example 131], in data set [1] (read-out: AUC0-∞), the AUC(0-inf) stood at 559 ng·h/mL. In data set [1] (read-out: Cmax), the maximum concentration (Cmax) was 151 ng/mL. For the same molecule, the half-life in data set [1] (read-out: T1/2 (converted)) is 18.3 h. Besides, the Tmax in data set [1] (read-out: Tmax) was 1 h. Also, in the data set on GP2D, the pIC50 was 9.77. Also, the pIC50 in the data set with AsPC-1 is 8.30. Moreover, the “Tumor volume (mm^3, Mean ± SD) Day 0” value in data set [2] (Day 0) is reported as 167 mm^3. In addition, in data set [2] (Day 14), the “TGI(%) Day 14” value was determined as 127.11%; the “Tumor volume (mm^3, Mean ± SD) Day 14” value is recorded as 122 mm^3; the “ΔT/ΔC(%) Day 14” value was 15.42%.
Consider `[2H]C([2H])([2H])[C@@H]1Oc2nc(-c3cc(O)cc4ccc(F)c(C#C)c34)c(F)c3nc(OCC4(CN5CCC(=NOC)CC5)CC4)nc(c23)N2C[C@H]3CC[C@H](N3)[C@@H]12` [Example 338, 1-((1-((((5S,5aS,6S,9R)-2-(8-ethynyl-7-fluoro-3-hydroxynaphthalen-1-yl)-1-fluoro-5-deuteratedmethyl-5a,6,7,8,9,10-hexahydro-5H-4-oxa-3,10a,11,13, 14-pentaaza-6,9-methylenenaphtho[1,8-ab]heptalen-12-yl)oxo)methyl)cyclopropyl)methyl)piperidin-4-one O-methyloxime formate], for which the pIC50 with GP2D is 9.47; with p-ERK in AGS cells it was 8.55.
